According to patent US6979686B1, “Substituted pyrazoles as p38 kinase inhibitors” (Pharmacia Corporation, priority 2001, dated 2005):

target: T1, human p38 kinase alpha (Homo sapiens, UniProt Q16539); experiment: p38 kinase in vitro assay, phosphorylation of biotinylated PHAS-I with 32P-ATP; assay type: biochemical; conditions: @ 1.0 uM
T1 construct: GST (N, cleaved yes); made in house; host or cells: E. coli DH10B
T1 sequence (Q16539 whole entry): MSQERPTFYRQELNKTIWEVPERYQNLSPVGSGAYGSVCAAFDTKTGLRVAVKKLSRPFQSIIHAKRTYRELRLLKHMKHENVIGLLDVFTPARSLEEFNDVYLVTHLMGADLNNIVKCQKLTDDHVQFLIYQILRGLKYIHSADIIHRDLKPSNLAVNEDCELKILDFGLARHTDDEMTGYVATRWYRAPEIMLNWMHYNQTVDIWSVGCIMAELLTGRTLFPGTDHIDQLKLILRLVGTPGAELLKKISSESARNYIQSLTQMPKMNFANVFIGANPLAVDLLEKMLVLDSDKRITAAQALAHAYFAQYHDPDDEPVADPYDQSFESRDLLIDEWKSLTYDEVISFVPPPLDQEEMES

Row | P38 alpha kinase % inhib @ conc. (uM) | P38 alpha kinase % inhib @ conc. | SMILES
1 | 45.0% @ | – | CCCCOc1ccc(NC(=O)NCCc2[nH]nc(-c3ccc(F)cc3)c2-c2ccncc2)cc1 [Example B-0944]
2 | 69.0% @ | – | CC(C)NC(=O)NCCc1[nH]nc(-c2ccc(F)cc2)c1-c1ccncc1 [Example B-1029]
3 | 79.0% @ | – | CC(C)C(=O)NCCCc1[nH]nc(-c2ccc(F)cc2)c1-c1ccncc1 [Example B-1160]
4 | 82.0% @ | – | O=S(=O)(NCCc1[nH]nc(-c2ccc(F)cc2)c1-c1ccncc1)C(F)(F)F [Example B-1019]
5 | 74.0% @ | – | CC(=O)OC(C)(C)C(=O)NCCCc1[nH]nc(-c2ccc(F)cc2)c1-c1ccncc1 [Example B-1163]
6 | – | 92.0% @ | CCCS(=O)(=O)NCCCc1[nH]nc(-c2ccc(F)cc2)c1-c1ccncc1 [Example B-1198]
7 | 85.0% @ | – | CC(C)OC(=O)NCCc1[nH]nc(-c2ccc(F)cc2)c1-c1ccncc1 [Example B-1057]
8 | – | 81.0% @ | O=C(NCCCc1[nH]nc(-c2ccc(F)cc2)c1-c1ccncc1)Nc1ccccc1 [Example B-1220]

same assay, conditions: @ 1.0 uM; read-out: P38 alpha kinase % inhib @ conc.

Row | inhibition at 1 µM | SMILES
9 | 89% | COc1ccc(C(=O)NCc2[nH]nc(-c3ccc(F)cc3)c2-c2ccncc2)cc1 [Example B-0039]

same assay, conditions: @ 10.0 uM

Row | P38 alpha kinase % inhib @ conc. | P38 alpha kinase IC50, uM or % inhib @ conc. (uM): % inhib | SMILES
10 | 75.0% @ | – | Cc1c(-c2ccncc2)c(-c2ccc(F)cc2)nn1CC(=O)NC1CC1 [Example B-2341]
11 | 19.0% @ | – | COC(=O)C(Cc1cn(C)cn1)NC(=O)Cn1nc(-c2ccc(F)cc2)c(-c2ccncc2)c1C (stereo not drawn) [Example B-2361]
12 | 35.0% @ | – | Cc1c(-c2ccncc2)c(-c2ccc(F)cc2)nn1CC(=O)NC(C)CCc1ccccc1 (stereo not drawn) [Example B-2340]
13 | – | 86.0% @ | Cc1c(-c2ccncc2)c(-c2ccc(F)cc2)nn1CC(=O)NCC(=O)Nc1ccccc1 [Example B-2441]
14 | – | 87.0% @ | CCOC(=O)c1cc(-c2ccc(NC(=O)Cn3nc(-c4ccc(F)cc4)c(-c4ccncc4)c3C)cc2)oc1C [Example B-2450]
15 | – | 89.0% @ | CCCCCCCOc1ccc(NC(=O)Cn2nc(-c3ccc(F)cc3)c(-c3ccncc3)c2C)cc1 [Example B-2452]
16 | – | 92.0% @ | Cc1c(-c2ccncc2)c(-c2ccc(F)cc2)nn1CC(=O)Nc1cccc(F)c1 [Example B-2429]
17 | 72.0% @ | – | CCOC(=O)N1CCC(NC(=O)Cn2nc(-c3ccc(F)cc3)c(-c3ccncc3)c2C)CC1 [Example B-2329]
18 | – | 80.0% @ | Cc1c(-c2ccncc2)c(-c2ccc(F)cc2)nn1CC(=O)Nc1ccccc1SCCCc1ccccc1 [Example B-2460]
19 | – | 85.0% @ | Cc1c(-c2ccncc2)c(-c2ccc(F)cc2)nn1CC(=O)Nc1ccccc1 [Example B-2416]

same assay, conditions: @ 100.0 uM

Row | P38 alpha kinase IC50, uM or % inhib @ conc. (uM): % inhib | P38 alpha kinase % inhib @ conc. | SMILES
20 | 47% @ | – | CCN(CC)CCN(CCN(CC)CC)C(=O)Cn1nc(-c2ccc(F)cc2)c(-c2ccncc2)c1C [Example B-2407]
21 | – | 73% @ | Cc1c(-c2ccncc2)c(-c2ccc(F)cc2)nn1CC(=O)N(C)Cc1ccccc1 [Example B-2370]

same assay, conditions: in vitro P38-alpha kinase inhibition; read-out: P38 alpha kinase IC50

Row | IC50 | SMILES
22 | 150 nM | CNC(=O)CCC(NC(=O)NC)c1[nH]nc(-c2ccc(F)cc2)c1-c1ccncc1 (stereo not drawn) [Example B-0880]
23 | 1240 nM | O=C(NC(Cc1ccccc1)c1[nH]nc(-c2ccc(F)cc2)c1-c1ccncc1)C1CCC1 (stereo not drawn) [Example B-0836]
24 | 2300 nM | O=S(=O)(C=Cc1ccccc1)NC(Cc1ccccc1)c1[nH]nc(-c2ccc(F)cc2)c1-c1ccncc1 (stereo not drawn) [Example B-0755]
25 | 48000 nM | CC(NC(=O)NC(Cc1ccccc1)c1[nH]nc(-c2ccc(F)cc2)c1-c1ccncc1)c1ccccc1 (stereo not drawn) [Example B-0781]
26 | 13000 nM | CC(NC(=O)c1cc(C(F)(F)F)ccc1F)c1[nH]nc(-c2ccc(F)cc2)c1-c1ccncc1 (stereo not drawn) [Example B-0683]
27 | 1030 nM | CC(NC(=O)N1CCOCC1)c1[nH]nc(-c2ccc(F)cc2)c1-c1ccncc1 (stereo not drawn) [Example B-0582]
28 | 20000 nM | O=C(Nc1ccc(F)cc1)NC(Cc1ccccc1)c1[nH]nc(-c2ccc(F)cc2)c1-c1ccncc1 (stereo not drawn) [Example B-0728]
29 | 1990 nM | O=S(=O)(C=Cc1ccccc1)NC(Cc1ccccc1)c1[nH]nc(-c2ccc(F)cc2)c1-c1ccncc1 (stereo not drawn) [Example B-0710]
30 | 14000 nM | O=C(Nc1ccc(F)cc1)NC(Cc1ccccc1)c1[nH]nc(-c2ccc(F)cc2)c1-c1ccncc1 (stereo not drawn) [Example B-0773]
31 | 880 nM | CC(NS(=O)(=O)c1cn(C)cn1)c1[nH]nc(-c2ccc(F)cc2)c1-c1ccncc1 (stereo not drawn) [Example B-0663]
32 | < 100 nM | O=S(=O)(NCCc1[nH]nc(-c2ccc(F)cc2)c1-c1ccncc1)c1cccc(Br)c1 [Example B-1083]
33 | 240 nM | CC(NC(=O)c1c(F)cccc1F)c1[nH]nc(-c2ccc(F)cc2)c1-c1ccncc1 (stereo not drawn) [Example B-0700]
34 | 650 nM | CNC(=O)CCC(NS(C)(=O)=O)c1[nH]nc(-c2ccc(F)cc2)c1-c1ccncc1 (stereo not drawn) [Example B-0878]
35 | 920 nM | C=CCNC(=O)NC(Cc1ccccc1)c1[nH]nc(-c2ccc(F)cc2)c1-c1ccncc1 (stereo not drawn) [Example B-0734]
36 | 4400 nM | O=C(Nc1cccc(F)c1)NC(Cc1ccccc1)c1[nH]nc(-c2ccc(F)cc2)c1-c1ccncc1 (stereo not drawn) [Example B-0740]
37 | 1500 nM | CCN(CC)C(=O)NC(Cc1ccccc1)c1[nH]nc(-c2ccc(F)cc2)c1-c1ccncc1 (stereo not drawn) [Example B-0787]
38 | 51000 nM | Cc1cccc(C)c1NC(=O)NC(Cc1ccccc1)c1[nH]nc(-c2ccc(F)cc2)c1-c1ccncc1 (stereo not drawn) [Example B-0778]
39 | 1320 nM | CNC(=O)CCC(NC(=O)c1ccccc1I)c1[nH]nc(-c2ccc(F)cc2)c1-c1ccncc1 (stereo not drawn) [Example B-0861]
40 | < 100 nM | CC(NS(=O)(=O)c1cccc(C(F)(F)F)c1)c1[nH]nc(-c2ccc(F)cc2)c1-c1ccncc1 (stereo not drawn) [Example B-0648]
41 | 420 nM | CC(NC(=O)c1c(F)cccc1C(F)(F)F)c1[nH]nc(-c2ccc(F)cc2)c1-c1ccncc1 (stereo not drawn) [Example B-0686]
42 | 4600 nM | CCCCS(=O)(=O)NC(Cc1ccccc1)c1[nH]nc(-c2ccc(F)cc2)c1-c1ccncc1 (stereo not drawn) [Example B-0716]
43 | 23 nM | CC(NS(=O)(=O)c1ccc(Cl)cc1Cl)c1[nH]nc(-c2ccc(F)cc2)c1-c1ccncc1 (stereo not drawn) [Example B-0625]

same assay, conditions: in vitro P38-alpha kinase; read-out: P38 alpha kinase IC50

Row | IC50 | SMILES
44 | 11 nM | Cc1c(-c2ccncc2)c(-c2ccc(F)cc2)nn1CC(=O)NCCc1ccc(Cl)c(Cl)c1 [Example B-2303]
45 | 740 nM | CCCCOc1ccc(S(=O)(=O)NCCCc2[nH]nc(-c3ccc(F)cc3)c2-c2ccncc2)cc1 [Example B-1261]
46 | 14 nM | O=S(=O)(c1cccc2cnccc12)N1CCC(c2[nH]nc(-c3ccc(F)cc3)c2-c2ccncc2)CC1 [Example B-1443]
47 | < 100 nM | Cc1cccc(S(=O)(=O)NCCCc2[nH]nc(-c3ccc(F)cc3)c2-c2ccncc2)c1 [Example B-1266]
48 | 750 nM | CCCCS(=O)(=O)N1CCC(c2[nH]nc(-c3ccc(F)cc3)c2-c2ccncc2)CC1 [Example B-1430]
49 | 1610 nM | O=S(=O)(c1ccc(Cl)cc1Cl)N1CCC(c2[nH]nc(-c3ccc(F)cc3)c2-c2ccncc2)CC1 [Example B-1449]
50 | 2530 nM | O=S(=O)(c1cc(Cl)cc(Cl)c1)N1CCC(c2[nH]nc(-c3ccc(F)cc3)c2-c2ccncc2)CC1 [Example B-1453]
51 | 460 nM | Cc1c(-c2ccncc2)c(-c2ccc(F)cc2)nn1CC(=O)NCCC1=CCCCC1 [Example B-2316]
52 | 2100 nM | O=S(=O)(c1cc(Cl)ccc1Cl)N1CCC(c2[nH]nc(-c3ccc(F)cc3)c2-c2ccncc2)CC1 [Example B-1450]
53 | 2370 nM | Cc1c(-c2ccncc2)c(-c2ccc(F)cc2)nn1CC(=O)NCc1ccc(C(C)(C)C)cc1 [Example B-2290]
54 | 670 nM | Cc1ccccc1S(=O)(=O)N1CCC(c2[nH]nc(-c3ccc(F)cc3)c2-c2ccncc2)CC1 [Example B-1459]
55 | 1050 nM | O=S(=O)(NCCCc1[nH]nc(-c2ccc(F)cc2)c1-c1ccncc1)c1ccccc1C(F)(F)F [Example B-1263]
56 | 1550 nM | N#Cc1cccc(C(=O)N2CCC(c3[nH]nc(-c4ccc(F)cc4)c3-c3ccncc3)CC2)c1 [Example B-1396]
57 | 490 nM | O=S(=O)(NCCCc1[nH]nc(-c2ccc(F)cc2)c1-c1ccncc1)c1ccc2ccccc2c1 [Example B-1245]
58 | 800 nM | COc1ccc(CNC(=O)Cn2nc(-c3ccc(F)cc3)c(-c3ccncc3)c2C)c(OC)c1 [Example B-2278]
59 | 38 nM | Cc1ccc(S(C)(=O)=O)cc1S(=O)(=O)NCCCc1[nH]nc(-c2ccc(F)cc2)c1-c1ccncc1 [Example B-1296]
60 | 270 nM | O=C(NCCCc1[nH]nc(-c2ccc(F)cc2)c1-c1ccncc1)c1ccc(Cl)cc1Cl [Example B-1345]
61 | 280 nM | O=C(c1cc(C(F)(F)F)ccc1F)N1CCC(c2[nH]nc(-c3ccc(F)cc3)c2-c2ccncc2)CC1 [Example B-1405]
62 | 1580 nM | CCCOC(=O)N1CCC(c2[nH]nc(-c3ccc(F)cc3)c2-c2ccncc2)CC1 [Example B-1423]
63 | 160 nM | Cc1noc(C)c1C(=O)NCCCc1[nH]nc(-c2ccc(F)cc2)c1-c1ccncc1 [Example B-1358]
64 | 500 nM | COc1ccc(C)c(S(=O)(=O)N2CCC(c3[nH]nc(-c4ccc(F)cc4)c3-c3ccncc3)CC2)c1 [Example B-1447]
65 | 300 nM | O=S(=O)(c1cccs1)N1CCC(c2[nH]nc(-c3ccc(F)cc3)c2-c2ccncc2)CC1 [Example B-1437]
66 | 69 nM | O=C(c1ccc(Cl)cc1Cl)N1CCC(c2[nH]nc(-c3ccc(F)cc3)c2-c2ccncc2)CC1 [Example B-1417]
67 | 19 nM | O=C(NCCCc1[nH]nc(-c2ccc(F)cc2)c1-c1ccncc1)c1cc(F)c(F)cc1F [Example B-1350]
68 | 320 nM | O=C(c1cccc(Cl)c1)N1CCC(c2[nH]nc(-c3ccc(F)cc3)c2-c2ccncc2)CC1 [Example B-1394]

Row | SMILES | IC50
69 | O=C(NCc1[nH]nc(-c2ccc(F)cc2)c1-c1ccncc1)c1c(Cl)cccc1Cl [Example B-0294] | 680 nM
